Experimental data published in patent US9895381B2, “Vitamin D receptor agonists to treat diseases involving CXCL12 activity” (Salk Institute for Biological Studies, priority 2013, dated 2018).
In brackets after ≈: the same amount, converted by molar mass.

Legend:
[1] = cited from earlier work
wild type mice = assay: Cerulein-induced acute pancreatitis model; format: in vivo, mouse; details: cerulein with daily 40 μg/kg calcipotriol
Method: Tissues were embedded in O.C.T. and frozen sections were fixed in ice-cold methanol at −20° C. for 20 min. Sections were blocked in PBS+0.2% BSA+0.05% Triton X-100 (blocking solution) for 1 h at room temperature. Primary antibody dilutions in blocking solution were as follows: anti-phospho-STAT3(Tyr705), 1:100 (Cell Signaling Technology); anti-Collagen I, 1:500 (Abcam), anti-GFAP, 1:100 (Abcam); anti-CD45, 1:100 (BD Pharmingen). Primary antibody incubations were performed in a humidified chamber at 4° C. overnight. Sections were washed 3 times with PBS+0.05% Triton X-100, then incubated in secondary antibodies for 1 h at room temperature, protected from light. Secondary antibodies used included Alexa Fluor 594 goat anti-rabbit IgG, Alexa Fluor 488 goat anti-rabbit IgG, Alexa Fluor 594 goat anti-rat IgG, and Alexa Fluor 488 goat anti-mouse IgG (Molecular Probes) and were used at 1:250 in blocking solution. […] Fluorescence was visualized on a Leica DM5000B fluorescent microscope and quantified using ImageJ. […] Cerulein injections were administered as 6 hourly injections 2 times per week for 12 weeks and analyzed 1 week after final cerulein injection, adapted from previous studies (Sah et al., 2013; Treiber et al., 2011; Yoo et al., 2005). […] Images were obtained and quantification of Sirius Red-positive area performed using Nuance 3.0.1.2 software. […]

primary human CAPSCs = assay: ACTA2 expression by qRT-PCR; format: cell-based; details: 100 nM Cal, 48 h; samples responding / samples tested
Method: Total RNA was purified following Trizol extraction according to the manufacturer's instructions. cDNA synthesis was carried out using iScript reagent (Bio-Rad), and qRT-PCR performed using SsoAdvanced SYBR Green reagent on the CFX384 detection system (Bio-Rad). Relative expression values were determined using the standard curve method. Primer sequences can be found in Table 2.

primary mouse PSCs = assay: RNA-Seq transcriptome of PSCs with or without VDR ligand; format: cell-based
Method: Pancreatic stellate cells (PSCs) were isolated from pancreata of wild-type C57BL6/J mice at 8 weeks of age by a modification of the method described by Apte et al. (Apte et al., 1998). Briefly, pancreatic tissue was minced with scissors and digested with 0.02% Pronase (Roche, Indianapolis, Ind.), 0.05% Collagenase P (Roche), and 0.1% DNase (Roche) in Gey's balanced salt solution (GBSS; Sigma Aldrich, St. Louis, Mo.) at 37° C. for […] Digested tissue was then filtered through a 100 μm nylon mesh. Cells were washed once with GBSS, pelleted, and resuspended in 9.5 ml GBSS containing 0.3% bovine serum albumin (BSA) and 8 ml 28.7% Nycodenz solution (Sigma Aldrich; approximate density of the solution is 1.070). The cell suspension was layered beneath GBSS containing 0.3% BSA, and centrifuged at 1400×g for 20 min at 4° C. The cells of interest were harvested from the interface of the Nycodenz solution at the bottom and the aqueous solution at the top. Isolated PSCs were washed with GBSS and resuspended in DMEM (Invitrogen) containing 10% characterized FBS (HyClone) and antibiotics (penicillin 100 U/ml and streptomycin 100 μg/ml, Invitrogen). Cells were maintained at 37° C. in a humidified atmosphere of 7% CO2. After reaching 80% confluence, cells were briefly trypsinized (0.25% Trypsin-EDTA, Invitrogen) and subcultured. Total RNA from human and mouse PSCs was isolated using Trizol (Invitrogen) and the RNeasy mini kit with on-column DNase digestion (Qiagen) according to the manufacturers' instructions. Biological quadruplicates were used for human samples, and biological triplicates used for mouse samples. For transcriptome studies with VDR activation, PSCs were treated with vehicle (DMSO) or 100 nM calcipotriol (Tocris) and harvested at the indicated time points. Sequencing libraries were prepared from 100-500 ng total RNA using the TruSeq RNA Sample Preparation Kit v2 (Illumina) according to the manufacturer's protocol. The Gene Expression Omnibus accession number for the RNA-Seq data is GSE43770. Briefly, mRNA was purified, fragmented, and used for first-, then second-strand cDNA synthesis followed by adenylation of 3′ ends. Samples were ligated to unique adapters and subject to PCR amplification. Libraries were then validated using the 2100 BioAnalyzer (Agilent), normalized, and pooled for sequencing. Human normal and cancer-associated PSCs were sequenced on the Illumina GAII platform with a 41 bp read length, while mouse PSCs and human MiaPaCa-2 cells were sequenced on the Illumina HiSeq 2000 using bar-coded multiplexing and a 51 bp read length. Read alignment and junction mapping was accomplished using TopHat2 v2.0.4 using a 25 bp 5′ segment seed for initial mapping followed by differential gene expression analysis using Cuffdiff v2.0.2 to map reads to the reference genome annotation, NCBI mouse build 37.2 and human build 37.2 (Trapnell et al., 2012). Median sequencing read yield per replicate sample was 49.2M for MiaPaCa-2 cells, 25.4M for mouse PSCs and 53.8M for human PSCs. Data were expressed as fragments per kilobase of exon per million fragments mapped (FPKM). Volcano plots were generated from Cuffdiff output using CummeRbund v2.0.0 (Trapnell et al., 2012).

MiaPaCa-2 cells = assay: CAPSC conditioned media experiments; format: cell-based, human; details: CM from Cal-treated CAPSCs (100 nM, 48 h), 48 h on MiaPaCa-2
Method: Primary […] were grown to 100% confluency. Fresh media was added to the cultures, and at this time, […] were treated with 100 nM calcipotriol. After 48 h, conditioned media was harvested, sterile-filtered through 0.45 μm pores, and added to pancreatic cancer cells (PCCs) at 50-60% confluency. PCCs were treated directly with 100 nM calcipotriol at the onset of conditioned media incubation. After 48 h, PCCs were harvested and RNA and protein isolated for analysis.

**Q.** Which “solubility in DMSO” value ([1]; DMSO) does the source give for `C=C1/C(=C\C=C2/CCC[C@]3(C)[C@@H]([C@H](C)/C=C/[C@@H](O)C4CC4)CC[C@@H]23)C[C@@H](O)C[C@@H]1O` [Cal, 1α,24-(OH)2-24-cyclopropyl-D3] here?
**A.** 100 mM (≈ 41.3 mg/mL)

**Q.** And the solubility in ethanol ([1]; ethanol)?
**A.** 100 mM (≈ 41.3 mg/mL)

**Q.** And the “activation-associated changes in PSC gene expression” value (wild type mice)?
**A.** impaired activation-associated changes in PSC gene expression

**Q.** And the “leukocyte infiltration and fibrosis” value (wild type mice)?
**A.** reduced leukocyte infiltration and fibrosis

**Q.** What about the “decreased expression of αSMA (ACTA2), patient samples” value (primary human CAPSCs) of the same compound?
**A.** 24/27

**Q.** And the “effect on activation and cancer signatures in PSCs” value (primary mouse PSCs)?
**A.** inhibition of the activation and cancer signatures

**Q.** And the “genes with significantly decreased expression” value (primary mouse PSCs; activated PSCs)?
**A.** 1616 genes

**Q.** And the “genes with significantly increased expression” value (primary mouse PSCs; activated PSCs)?
**A.** 664 genes

**Q.** What about the “genes with significantly decreased expression” value (primary mouse PSCs; pre-activated PSCs) of the same compound?
**A.** 431 genes

**Q.** And the “genes with significantly increased expression” value (primary mouse PSCs; pre-activated PSCs)?
**A.** 307 genes

**Q.** And the “gene expression changes induced by CAPSC conditioned media” value (MiaPaCa-2 cells)?
**A.** largely abrogated
